The text below walks through data of US20090082203A1, “INSECTICIDAL BIS(SUBSTITUTED PHENYL)-1-{[4-(SATURATED HETEROCYCLYL-SUBSTITUTED)PHENYLMETHYL]- (4-PIPERIDYL)}METHANE DERIVATIVES” (priority 2004, published 2009).

This series deals with tobacco budworm (Heliothis virescens [Fabricius]). Briefly: surface-treated diet test against tobacco budworm. The class given is in vivo. As to conditions: for Percent Growth Inhibition: inhibition of insect weight relative to untreated controls. As to the method: Candidate insecticides were evaluated for activity against the tobacco budworm (Heliothis virescens [Fabricius]) in a surface-treated diet test.
In this test one mL of molten (65-70° C.) wheat germ-based artificial diet was pipetted into each well of a four by six (24 well) multi-well plate (ID# 430345-15.5 mm dia.×17.6 mm deep; Corning Costar Corp., One Alewife Center, Cambridge, Mass. 02140). The diet was allowed to cool to ambient temperature before treatment with candidate insecticide.
For a determination of insecticidal activity, solutions of the candidate insecticides were prepared for testing using a Packard 204DT Multiprobe® Robotic System (Packard Instrument Company, 800 Research Parkway, Meriden, Conn. 06450), in which the robot first diluted a standard 50 millimolar DMSO solution of candidate insecticide with a 1:1 water/acetone solution (V/V) in a ratio of 1:7 stock solution to water/acetone. The robot subsequently pipetted 40 microliters of the so-prepared solution onto the surface of the diet in each of three wells in the 24 multi-well plate. The process was repeated with solutions of seven other candidate insecticides. Once treated, the contents of the multi-well plate were allowed to dry, leaving 0.25 millimoles of candidate insecticide on the surface of the diet, or a concentration of 0.25 millimolar. Appropriate untreated controls containing only DMSO on the diet surface were also included in this test.
For evaluations of the insecticidal activity of a candidate insecticide at varying rates of application, the test was established as described above using sub-multiples of the standard 50 millimolar DMSO solution of candidate insecticide. For example, the standard 50 millimolar solution was diluted by the robot with DMSO to give 5, 0.5, 0.05, 0.005, 0.0005 millimolar, or more dilute solutions of the candidate insecticide. In these evaluations there were six replicates of each rate of application placed on the surface of the diet in the 24 multi-well plate, for a total of four rates of application of candidate insecticide in each plate.
In each well of the test plate was placed one second instar tobacco budworm larvae, each weighing approximately five milligrams. After the larvae were placed in each well, the plate was sealed with clear polyfilm adhesive tape. The tape over each well was perforated to ensure an adequate air supply. The plates were then held in a growth chamber at 25° C. and 60% relative humidity for five days (light 14 hours/day).
After the five-day exposure period insecticidal activity for each rate of application of candidate insecticide was assessed as percent inhibition of insect weight relative to the weight of insects from untreated controls, and percent mortality when compared to the total number of insects infested.
The test compounds of formula I are identified by numbers that correspond to those in Table 1.

Where [1] appears, read: 0.25 millimolar on the surface of the diet, second instar larvae, five-day exposure, compared to the total number of insects infested.
Where [2] appears, read: 0.25 millimolar on the surface of the diet, second instar larvae, five-day exposure.

Turning to `CC1COC(c2ccc(C[N+]3([O-])CCC(C(O)(c4ccc(Cl)c(Cl)c4)c4ccc(Cl)c(Cl)c4)CC3)cc2)O1` (stereo not drawn) [Compound 177], the “Percent Mortality” value under setting [1] turned out to be 100%. The “Percent Growth Inhibition” value under setting [2] amounted to 100%.

As to `OC(c1ccc(OC(F)(F)F)cc1)(c1ccc(OC(F)(F)F)cc1)C1CCN(Cc2ccc(C3OCC(CN4CCCC4)O3)cc2)CC1` (stereo not drawn) [Compound 108], the “Percent Mortality” value under setting [1] was found to be 33%. Also, the “Percent Growth Inhibition” value under setting [2] turned out to be 97%.

For `[O-][N+]1(Cc2ccc(C3O[C@H]4COC[C@H]4O3)cc2)CCC(C(O)(c2ccc(OC(F)(F)F)cc2)c2ccc(OC(F)(F)F)cc2)CC1` (stereo partly drawn) [Compound 118], the “Percent Mortality” value under setting [1] is 100%. For the same compound, under setting [2], the “Percent Growth Inhibition” value is recorded as 100%.

In the case of `[O-][N+]1(Cc2ccc(C3OCCO3)c(C(F)(F)F)c2)CCC(C(O)(c2ccc(OC(F)(F)F)cc2)c2ccc(OC(F)(F)F)cc2)CC1` (stereo not drawn) [Compound 182], the “Percent Mortality” value under setting [1] was found to be 100%. Besides, under setting [2], the “Percent Growth Inhibition” value was found to be 100%.

In the case of `OC(c1ccc(OC(F)(F)F)cc1)(c1ccc(OC(F)(F)F)cc1)C1CCN(Cc2ccc(OCC3(c4ccccc4)OCCO3)cc2)CC1` [Compound 186], the “Percent Mortality” value under setting [1] is 100%. Further, under setting [2], the “Percent Growth Inhibition” value is given as 100%.

On to `OC(c1ccc(OC(F)(F)F)cc1)(c1ccc(OC(F)(F)F)cc1)C1CCN(Cc2ccc(C3OCC4(CC4)CO3)cc2)CC1` [Compound 45], for which, under setting [1], the “Percent Mortality” value was found to be 100%. In addition, the “Percent Growth Inhibition” value under setting [2] is on record as 100%.

Take `CC1(c2ccc(CN3CCC(C(O)(c4ccc(OC(F)(F)F)cc4)c4ccc(OC(F)(F)F)cc4)CC3)cc2)OCCO1` [Compound 8]: the “Percent Mortality” value under setting [1] is given as 100%. The “Percent Growth Inhibition” value under setting [2] is listed as 100%.

Consider `CC1COC(c2ccc(CN3CCC(C(c4ccc(OC(F)(F)F)cc4)c4ccc(OC(F)(F)F)cc4)CC3)cc2)O1` (stereo not drawn) [Compound 178], for which, under setting [1], the “Percent Mortality” value stood at 100%. Under setting [2], the “Percent Growth Inhibition” value is 100%.

Take `CN(C)C(=O)N1CCSC1c1ccc(CN2CCC(C(O)(c3ccc(OC(F)(F)F)cc3)c3ccc(OC(F)(F)F)cc3)CC2)cc1` (stereo not drawn) [Compound 73]: the “Percent Mortality” value under setting [1] came out at 100%. The “Percent Growth Inhibition” value under setting [2] was 100%.

`OC(c1ccc(OC(F)(F)F)cc1)(c1ccc(OC(F)(F)F)cc1)C1CCN(Cc2ccc(C3OCC=CCO3)cc2)CC1` [Compound 58]: the “Percent Mortality” value under setting [1] stood at 100%. For the same compound, the “Percent Growth Inhibition” value under setting [2] was determined as 100%.

On to `OC(c1ccc(OC(F)(F)F)cc1)(c1ccc(OC(F)(F)F)cc1)C1CCN(Cc2ccc(C3OCCCO3)cc2)CC1` [Compound 4], for which the “Percent Mortality” value under setting [1] was 100%. The “Percent Growth Inhibition” value under setting [2] worked out at 100%.

`CC1COC(c2ccc(CN3CCC(C(O)(c4ccc(OC(F)(F)F)cc4)c4ccc(OC(F)(F)F)cc4)CC3)cc2F)O1` (stereo not drawn) [Compound 179]: under setting [1], the “Percent Mortality” value was determined as 100%. The “Percent Growth Inhibition” value under setting [2] came to 100%.

Consider `Cc1cc(C[N+]2([O-])CCC(C(O)(c3ccc(OC(F)(F)F)cc3)c3ccc(OC(F)(F)F)cc3)CC2)ccc1C1OCCO1` (stereo not drawn) [Compound 170], for which the “Percent Growth Inhibition” value under setting [2] came out at 100%. Further, the “Percent Mortality” value (in vivo) came out at 100%.

Take `[O-][N+]1(Cc2ccc(CC3OCCO3)cc2)CCC(C(O)(c2ccc(OC(F)(F)F)cc2)c2ccc(OC(F)(F)F)cc2)CC1` (stereo not drawn) [Compound 184]: under setting [1], the “Percent Mortality” value is listed as 100%. Besides, under setting [2], the “Percent Growth Inhibition” value is listed as 100%.

As for `CC1COC(COc2ccc(C[N+]3([O-])CCC(C(O)(c4ccc(OC(F)(F)F)cc4)c4ccc(OC(F)(F)F)cc4)CC3)cc2)O1` (stereo not drawn) [Compound 194], under setting [1], the “Percent Mortality” value was found to be 100%. Further, the “Percent Growth Inhibition” value under setting [2] is recorded as 100%.

With “bis(4-trifluoromethoxyphenyl])(1-{[4-(1,3-dioxan-2-ylmethoxy)phenyl]methyl}(4-piperidyl))methan-1-ol, N-oxide [Compound 200]”, the “Percent Mortality” value under setting [1] is listed as 100%. Besides, the “Percent Growth Inhibition” value under setting [2] was 100%.

As for `COC(=O)N1CCSC1c1ccc(CN2CCC(C(O)(c3ccc(OC(F)(F)F)cc3)c3ccc(OC(F)(F)F)cc3)CC2)cc1` (stereo not drawn) [Compound 89], the “Percent Mortality” value under setting [1] is reported as 100%. In addition, the “Percent Growth Inhibition” value under setting [2] came to 100%.

Take `CC1(C)CCOC(c2ccc(CN3CCC(C(O)(c4ccc(OC(F)(F)F)cc4)c4ccc(OC(F)(F)F)cc4)CC3)cc2)O1` (stereo not drawn) [Compound 69]: the “Percent Mortality” value under setting [1] is listed as 100%. In addition, the “Percent Growth Inhibition” value under setting [2] amounted to 100%.

As to `C=CCOCC1COC(c2ccc(C[N+]3([O-])CCC(C(O)(c4ccc(OC(F)(F)F)cc4)c4ccc(OC(F)(F)F)cc4)CC3)cc2)O1` (stereo not drawn) [Compound 93], the “Percent Mortality” value under setting [1] was determined as 100%. Besides, under setting [2], the “Percent Growth Inhibition” value came to 100%.

On to `CCCCN1CCOC1c1ccc(CN2CCC(C(O)(c3ccc(OC(F)(F)F)cc3)c3ccc(OC(F)(F)F)cc3)CC2)cc1` (stereo not drawn) [Compound 98], for which the “Percent Mortality” value under setting [1] turned out to be 100%. Moreover, the “Percent Growth Inhibition” value under setting [2] was 100%.

For the compound `OC(c1ccc(OC(F)(F)F)cc1)(c1ccc(OC(F)(F)F)cc1)C1CCN(Cc2ccc(CC3OCCO3)cc2)CC1` [Compound 183], the “Percent Mortality” value under setting [1] is 100%. For the same compound, the “Percent Growth Inhibition” value under setting [2] was 100%.

On to `NC1(CO)COC(c2ccc(CN3CCC(C(O)(c4ccc(OC(F)(F)F)cc4)c4ccc(OC(F)(F)F)cc4)CC3)cc2)OC1` (stereo not drawn) [Compound 107], for which the “Percent Mortality” value under setting [1] was 100%. Under setting [2], the “Percent Growth Inhibition” value is reported as 100%.

With `CC1(C)CCOC(c2ccc(C[N+]3([O-])CCC(C(O)(c4ccc(OC(F)(F)F)cc4)c4ccc(OC(F)(F)F)cc4)CC3)cc2)O1` (stereo not drawn) [Compound 70], the “Percent Mortality” value under setting [1] came to 100%. The “Percent Growth Inhibition” value under setting [2] came out at 100%.

As for `OC(c1ccc(OC(F)(F)F)cc1)(c1ccc(OC(F)(F)F)cc1)C1CCN(Cc2ccc(C3(c4cccc(Cl)c4)OCCO3)cc2)CC1` [Compound 85], the “Percent Mortality” value under setting [1] was 100%. The “Percent Growth Inhibition” value under setting [2] was 100%.

Regarding `OC(c1ccc(OC(F)(F)F)cc1)(c1ccc(OC(F)(F)F)cc1)C1CCN(Cc2ccc(OCC3OCCCO3)cc2)CC1` [Compound 199, bis[4-(trifluoromethoxy)-phenyl](1-{[4-(1,3-dioxan-2-ylmethoxy)phenyl]methyl}(4-piperidyl))methan-1-ol], the “Percent Mortality” value under setting [1] was 100%. The “Percent Growth Inhibition” value under setting [2] turned out to be 100%.

Consider `[O-][N+]1(Cc2ccc(OCC3OCCO3)cc2)CCC(C(O)(c2ccc(OC(F)(F)F)cc2)c2ccc(OC(F)(F)F)cc2)CC1` (stereo not drawn) [Compound 188], for which the “Percent Mortality” value under setting [1] is recorded as 100%. Besides, under setting [2], the “Percent Growth Inhibition” value is listed as 100%.

On to `CCCC1COC(c2ccc(C[N+]3([O-])CCC(C(O)(c4ccc(OC(F)(F)F)cc4)c4ccc(OC(F)(F)F)cc4)CC3)cc2)O1` (stereo not drawn) [Compound 74], for which the “Percent Mortality” value under setting [1] worked out at 100%. The “Percent Growth Inhibition” value under setting [2] was 100%.

`CC1(c2ccc(CN3CCC(C(O)(c4ccc(OC(F)(F)F)cc4)c4ccc(OC(F)(F)F)cc4)CC3)cc2)OCCCO1` [Compound 11]: the “Percent Mortality” value under setting [1] is on record as 100%. Further, the “Percent Growth Inhibition” value under setting [2] was 100%.

For `OC(c1ccc(OC(F)(F)F)cc1)(c1ccc(OC(F)(F)F)cc1)C1CCN(Cc2ccc(C3(c4ccccc4)OCCO3)cc2)CC1` [Compound 57], under setting [1], the “Percent Mortality” value was determined as 100%. Further, the “Percent Growth Inhibition” value under setting [2] is recorded as 100%.

With `OC(c1ccc(OC(F)(F)F)cc1)(c1ccc(OC(F)(F)F)cc1)C1CCN(Cc2ccc(C3O[C@H]4CCCC[C@H]4O3)cc2)CC1` (stereo partly drawn) [Compound 115], the “Percent Mortality” value under setting [1] came to 100%. Also, the “Percent Growth Inhibition” value under setting [2] was found to be 100%.
